According to ChEMBL document CHEMBL1687693, “Facile synthesis of a fluorescent cyclosporin a analogue to study cyclophilin 40 and cyclophilin 18 ligands” (ACS Med Chem Lett, 2010):

How the values were obtained:
[1] = target: T1, Peptidyl-prolyl cis-trans isomerase A (Homo sapiens, UniProt P62937); assay: Inhibition of cyclosporin binding to Cyp18 by fluorescence polarization competition assay
[2] = target: T1, Peptidyl-prolyl cis-trans isomerase A; assay: Inhibition of Cyclophilin 18 PPIase activity
[3] = target: T2, Peptidyl-prolyl cis-trans isomerase D (Homo sapiens, UniProt Q08752); assay: Inhibition of Cyclophilin 40 PPIase activity
[4] = target: T2, Peptidyl-prolyl cis-trans isomerase D; assay: Inhibition of cyclosporin binding to Cyp40 by fluorescence polarization competition assay

T2 sequence (Q08752 whole entry): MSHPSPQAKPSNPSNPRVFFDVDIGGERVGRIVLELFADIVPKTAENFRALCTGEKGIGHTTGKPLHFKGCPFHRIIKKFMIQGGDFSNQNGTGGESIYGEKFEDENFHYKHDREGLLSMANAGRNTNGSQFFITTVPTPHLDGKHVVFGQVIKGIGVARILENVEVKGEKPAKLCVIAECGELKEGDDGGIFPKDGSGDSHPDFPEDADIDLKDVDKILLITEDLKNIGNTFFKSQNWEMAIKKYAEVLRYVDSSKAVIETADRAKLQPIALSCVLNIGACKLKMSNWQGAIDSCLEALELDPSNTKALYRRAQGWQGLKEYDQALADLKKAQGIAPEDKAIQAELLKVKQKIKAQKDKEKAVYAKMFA
T1 sequence (P62937 whole entry): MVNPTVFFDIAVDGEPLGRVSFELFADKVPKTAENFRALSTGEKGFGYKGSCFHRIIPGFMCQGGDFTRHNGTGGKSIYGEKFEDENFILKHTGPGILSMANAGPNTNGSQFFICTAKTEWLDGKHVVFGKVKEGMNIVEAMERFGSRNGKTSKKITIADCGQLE

`CC[C@@H]1NC(=O)[C@H]([C@H](O)[C@H](C)C/C=C/c2ccc(CNC(=O)c3ccc(-c4c5ccc(=O)cc-5oc5cc(O)ccc45)c(C(=O)O)c3)cc2)N(C)C(=O)[C@H](C(C)C)N(C)C(=O)[C@H](CC(C)C)N(C)C(=O)[C@H](CC(C)C)N(C)C(=O)[C@@H](C)NC(=O)[C@H](C)NC(=O)[C@H](CC(C)C)N(C)C(=O)[C@H](C(C)C)NC(=O)[C@H](CC(C)C)N(C)C(=O)CN(C)C1=O` was tested, and the Kd [1] was 12 nM, the Ki [2] was 106 nM and the Ki [3] was 12 nM. It also gave a Kd [4] of 101 nM.
